Test: Solubility
Type: physicochemical
Settings: for solubility in water: H2O

solubility in water	solubility in water (listed as anthracene derivative of Examples 1 and 2)	solubility in methanol (methanol, with respect to observing excimer characteristics)	maximum solubility (PBS (pH 7.4)) [mM]	Structure (SMILES)	solubility in organic solvents (CH2Cl2, CHCl3, THF, CH3OH, C2H5OH)
Limited solubility in H2O	insoluble in water	insufficiently soluble		C=C(C)C(=O)NCCCN(Cc1ccccc1B(O)O)Cc1c2ccccc2cc2ccccc12 [9-[[N-methacryloylaminopropyl-N-(o-boronobenzyl)amino]methyl]anthracene]	soluble in CH2Cl2, CHCl3, THF, CH3OH, and C2H5OH
			1	C=C(C)C(=O)NCCCN(Cc1ccc(CN(CCCNC(=O)C(=C)C)Cc2ccccc2B2OCC(C)(C)CO2)cc1)Cc1ccccc1B1OCC(C)(C)CO1 [bis boronic acid monomer, α,α′-bis[N-[2-(5,5-dimethyl-1,3,2]dioxaborinan-2-yl)-benzyl]-N-[3-(methacrylamido)propylamino]-1,4-xylene]	

From patent US7939332B2, “Detection of analytes in aqueous environments” (Sensors for Medicine and Science, Inc., priority 2000, dated 2011)
